Read-outs that look alike come from different tables or passages of the source.
How the values were obtained:
[1] = biological target: T1, DNA-PK phosphorylation at Serine 2056 (Homo sapiens, UniProt P78527); assay: Cellular Assay for Inhibition of DNA-PK Phosphorylation at Serine 2056 (FaDu cells, neocarzinostatin, sandwich ELISA); type: cell-based; details: Table 1
T1 construct: host or cells: FaDu
Summary of the method: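 FaDu cells were pretreated with compound (0.3% DMSO) for 1 h, then exposed to neocarzinostatin at 1 μg/mL final for 2 h to induce DSBs. Protein-normalized lysates were assayed by MSD sandwich ELISA for total and pSer2056 DNA-PK. IC50 came from variable-slope fits of % inhibition relative to DMSO and NCS controls.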

[2] = biological target: T2, pDNA-PK ser2056 induction in HCT116 spheroids (Homo sapiens, UniProt P78527); assay: Multicellular tumour spheroid + radiation, pDNA-PK inhibition, HCT116; type: cell-based; details: 20 Gy
T2 construct: endogenous in cells; host or cells: HCT116 multicellular tumour spheroids
Summary of the method: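 HCT116 spheroids (~0.5 mm) in MEM/10% FBS/10 mM glucose, 20% O2, 37 °C, pre-incubated 1 h with compound (10 or 5 μM down to 3.5 nM), irradiated 20 Gy, incubated 2 h more. Cryosections immunostained for pDNA-PK ser2056; EC50 (μM) for 50% reduction of radiation-induced pDNA-PK.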

[3] = Example 7, spheroid, cell line HCT115 [sic], 20% O2, read-out: EC50 (pDNA-PK inhibition, immunohistochemical endpoint)
[4] = Example 8, spheroid, read-out: Cell line: HCT116 Immunohistochemical endpoint pDNA-PK inhibition EC50
[5] = Example 9 Study 2, 20% O2, read-out: Spheroid Cell line: HCT116 Immunohistochemical endpoint pDNA-PK inhibition EC50

| Compound | IC50 [1] [µM] | EC50 [2, 3] [µM] | EC50 [2, 4] [µM] | EC50 [2, 5] [µM] |
| --- | --- | --- | --- | --- |
| Fc1cn([C@H]2CC[C@@H](Oc3nc(N4CCOCC4)cc4ncccc34)CC2)cn1 [Compound 17a, 4-(5-(((1s,4s)-4-(4-fluoro-1H-imidazol-1-yl)cyclohexyl)oxy)-1,6-naphthyridin-7-yl)morpholine] | < 0.1 | 1 to 10 | 1 to 10 | 1 to 10 |
| Cc1nc(C(F)(F)F)cn1[C@H]1CC[C@@H](Oc2nc(N3CCOCC3)cc3ncccc23)CC1 [Compound 17i, 4-(5-(((1s,4s)-4-(2-methyl-4-(trifluoromethyl)-1H-imidazol-1-yl)cyclohexyl)oxy)-1,6-naphthyridin-7-yl)morpholine] | 0.1 to 1 | 1 to 10 | 1 to 10 | 1 to 10 |
| FC(F)(F)c1cncn1[C@H]1CC[C@@H](Oc2nc(N3CCOCC3)cc3ncccc23)CC1 [Compound 17j, 4-(5-(((1s,4s)-4-(5-(trifluoromethyl)-1H-imidazol-1-yl)cyclohexyl)oxy)-1,6-naphthyridin-7-yl)morpholine] | 0.1 to 1 | 0.5 to 1 | 0.5 to 1 | 0.5 to 1 |
| Oc1cnc2cc(N3CCOCC3)nc(O[C@H]3CC[C@@H](Nc4ncccn4)CC3)c2c1 [Compound 19a, 7-Morpholino-5-(((1s,4s)-4-(pyrimidin-2-ylamino)cyclohexyl)oxy)-1,6-naphthyridin-3-ol] | < 0.1 | 0.5 to 1 | 0.5 to 1 | 0.5 to 1 |
| CCOCCOc1cnc(N[C@H]2CC[C@@H](Oc3nc(N4CCOCC4)cc4ncc(O)cc34)CC2)nc1 [Compound 19b, 5-(((1s,4s)-4-((5-(2-Ethoxyethoxy)pyrimidin-2-yl)amino)cyclohexyl)oxy)-7-morpholino-1,6-naphthyridin-3-ol] | 0.1 to 1 | 0.01 to 0.5 | 0.01 to 0.5 | 0.01 to 0.5 |
| COc1cnc(N[C@H]2CC[C@@H](Oc3nc(N4CCOCC4)cc4ncc(O)cc34)CC2)nc1 [Compound 19c, 5-(((1s,4s)-4-((5-Methoxypyrimidin-2-yl)amino)cyclohexyl)oxy)-7-morpholino-1,6-naphthyridin-3-ol] | < 0.1 | 1 to 10 | 1 to 10 | 1 to 10 |
| c1cnc(N[C@H]2CC[C@@H](Oc3nc(N4CCOCC4)cc4ncccc34)CC2)nc1 [Compound 20a, N-((1s,4s)-4-((7-Morpholino-1,6-naphthyridin-5-yl)oxy)cyclohexyl)pyrimidin-2-amine] | 0.1 to 1 | 0.5 to 1 | 0.5 to 1 | 0.5 to 1 |
| FC(F)c1ccc2c(O[C@H]3CC[C@@H](Nc4ncccn4)CC3)nc(N3CCOCC3)cc2n1 [Compound 21, N-((1s,4s)-4-((2-(Difluoromethyl)-7-morpholino-1,6-naphthyridin-5-yl)oxy)cyclohexyl)pyrimidin-2-amine] | 0.1 to 1 | 10 to 100 |  | 10 to 100 |
| FC(F)c1ccnc2cc(N3CCOCC3)nc(O[C@H]3CC[C@@H](Nc4ncccn4)CC3)c12 [Compound 22, N-((1s,4s)-4-((4-(Difluoromethyl)-7-morpholino-1,6-naphthyridin-5-yl)oxy)cyclohexyl)pyrimidin-2-amine] | < 0.1 | 0.5 to 1 |  | 0.5 to 1 |
| c1cnc2cc(N3CCOCC3)nc(O[C@H]3CC[C@@H](Nc4cncnc4)CC3)c2c1 [Compound 28, N-((1s,4s)-4-((7-morpholino-1,6-naphthyridin-5-yl)oxy)cyclohexyl)pyrimidin-5-amine] | < 0.1 | 1 to 10 |  | 1 to 10 |
| FC(F)(F)c1cnc(N[C@H]2CC[C@@H](Oc3nc(N4CCOCC4)cc4ncccc34)CC2)nc1 [Compound 34, N-((1s,4s)-4-((7-Morpholino-1,6-naphthyridin-5-yl)oxy)cyclohexyl)-5-(trifluoromethyl)pyrimidin-2-amine] | 0.1 to 1 | 1 to 10 | 1 to 10 | 1 to 10 |
| FC(F)Oc1cnc(N[C@H]2CC[C@@H](Oc3nc(N4CCOCC4)cc4ncccc34)CC2)nc1 [Compound 35, 5-(Difluoromethoxy)-N-((1s,4s)-4-((7-morpholino-1,6-naphthyridin-5-yl)oxy)cyclohexyl)pyrimidin-2-amine] | < 0.1 | 1 to 10 | 1 to 10 | 1 to 10 |
| Nc1cnc(N[C@H]2CC[C@@H](Oc3nc(N4CCOCC4)cc4ncccc34)CC2)nc1 [Compound 43, N2-((1s,4s)-4-((7-morpholino-1,6-naphthyridin-5-yl)oxy)cyclohexyl)pyrimidine-2,5-diamine] | < 0.1 | 0.01 to 0.5 |  | 0.01 to 0.5 |
| CS(=O)(=O)Nc1cnc(N[C@H]2CC[C@@H](Oc3nc(N4CCOCC4)cc4ncccc34)CC2)nc1 [Compound 44, N-(2-(((1s,4s)-4-((7-morpholino-1,6-naphthyridin-5-yl)oxy)cyclohexyl)amino)pyrimidin-5-yl)methanesulfonamide] | < 0.1 | 0.5 to 1 |  | 0.5 to 1 |
| Oc1cnc(N[C@H]2CC[C@@H](Oc3nc(N4CCOCC4)cc4ncccc34)CC2)nc1 [Compound 45, 2-(((1s,4s)-4-((7-morpholino-1,6-naphthyridin-5-yl)oxy)cyclohexyl)amino)pyrimidin-5-ol] | < 0.1 | 0.5 to 1 |  | 0.5 to 1 |
| NS(=O)(=O)c1cnc(N[C@H]2CC[C@@H](Oc3nc(N4CCOCC4)cc4ncccc34)CC2)nc1 [Compound 46, 2-(((1s,4s)-4-((7-morpholino-1,6-naphthyridin-5-yl)oxy)cyclohexyl)amino)pyrimidine-5-sulfonamide] | 1 to 10 | 0.5 to 1 |  | 0.5 to 1 |
| NC(=O)c1cnc(N[C@H]2CC[C@@H](Oc3nc(N4CCOCC4)cc4ncccc34)CC2)nc1 [Compound 52, 2-(((1s,4s)-4-((7-morpholino-1,6-naphthyridin-5-yl)oxy)cyclohexyl)amino)pyrimidine-5-carboxamide] | < 0.1 | 0.01 to 0.5 |  | 0.01 to 0.5 |
| CN(C)C(=O)c1cnc(N[C@H]2CC[C@@H](Oc3nc(N4CCOCC4)cc4ncccc34)CC2)nc1 [Compound 53, N,N-dimethyl-2-(((1s,4s)-4-((7-morpholino-1,6-naphthyridin-5-yl)oxy)cyclohexyl)amino)pyrimidine-5-carboxamide] | < 0.1 | 0.5 to 1 |  | 0.5 to 1 |

The remaining lines, values ahead:

| IC50 [1] [µM] | EC50 [2, 3] [µM] | EC50 [2, 4] [µM] | EC50 [2, 5] [µM] | Compound |
| --- | --- | --- | --- | --- |
| 0.1 to 1 | 1 to 10 |  | 1 to 10 | Cn1cnc(N[C@H]2CC[C@@H](Oc3nc(N4CCOCC4)cc4ncccc34)CC2)n1 [Compound 31, 1-methyl-N-((1s,4s)-4-((7-morpholino-1,6-naphthyridin-5-yl)oxy)cyclohexyl)-1H-1,2,4-triazol-3-amine] |
| 0.1 to 1 | 1 to 10 | 1 to 10 | 1 to 10 | Cc1cnc(N[C@H]2CC[C@@H](Oc3nc(N4CCOCC4)cc4ncccc34)CC2)nc1 [Compound 32, 5-Methyl-N-((1s,4s)-4-((7-morpholino-1,6-naphthyridin-5-yl)oxy)cyclohexyl)pyrimidin-2-amine] |
| < 0.1 | 1 to 10 |  | 1 to 10 | COc1ccc(N[C@H]2CC[C@@H](Oc3nc(N4CCOCC4)cc4ncccc34)CC2)nn1 [Compound 38, 6-methoxy-N-((1s,4s)-4-((7-morpholino-1,6-naphthyridin-5-yl)oxy)cyclohexyl)pyridazin-3-amine] |
| < 0.1 | 0.5 to 1 |  | 0.5 to 1 | Cc1ccnc(N[C@H]2CC[C@@H](Oc3nc(N4CCOCC4)cc4ncccc34)CC2)n1 [Compound 48, 4-methyl-N-((1s,4s)-4-((7-morpholino-1,6-naphthyridin-5-yl)oxy)cyclohexyl)pyrimidin-2-amine] |
| 0.1 to 1 | 1 to 10 |  | 1 to 10 | COc1ccnc(N[C@H]2CC[C@@H](Oc3nc(N4CCOCC4)cc4ncccc34)CC2)n1 [Compound 49, 4-methoxy-N-((1s,4s)-4-((7-morpholino-1,6-naphthyridin-5-yl)oxy)cyclohexyl)pyrimidin-2-amine] |
| 0.1 to 1 | 0.01 to 0.5 |  | 0.01 to 0.5 | c1cnc2cc(N3CCOCC3)nc(O[C@H]3CC[C@@H](Nc4ncnc5ccoc45)CC3)c2c1 [Compound 80a, N-((1s,4s)-4-((7-morpholino-1,6-naphthyridin-5-yl)oxy)cyclohexyl)furo[3,2-d]pyrimidin-4-amine] |
| 0.1 to 1 | 0.5 to 1 |  | 0.5 to 1 | Cc1nc(N[C@H]2CC[C@@H](Oc3nc(N4CCOCC4)cc4ncccc34)CC2)c2occc2n1 [Compound 81, 2-methyl-N-((1s,4s)-4-((7-morpholino-1,6-naphthyridin-5-yl)oxy)cyclohexyl)furo[3,2-d]pyrimidin-4-amine] |
| < 0.1 | 0.01 to 0.5 |  | 0.01 to 0.5 | c1cnc2cc(N3CCOCC3)nc(O[C@H]3CC[C@@H](Nc4ncnc5occc45)CC3)c2c1 [Compound 82, N-((1s,4s)-4-((7-morpholino-1,6-naphthyridin-5-yl)oxy)cyclohexyl)furo[2,3-d]pyrimidin-4-amine] |
| < 0.1 | 0.01 to 0.5 |  | 0.01 to 0.5 | c1cnc2cc(N3CCOCC3)nc(O[C@H]3CC[C@@H](Nc4ncnc5ccsc45)CC3)c2c1 [Compound 83, N-((1s,4s)-4-((7-morpholino-1,6-naphthyridin-5-yl)oxy)cyclohexyl)thieno[3,2-d]pyrimidin-4-amine] |
